In patent publication US7285564B2, “Substituted 4-amino-1-(pyridylmethyl)piperidine and related compounds” (Theravance, Inc., priority 2002, dated 2007):

Tested on: oxotremorine-induced salivation
Test: In vivo rat salivation assay
Settings: rat bladder assay vs rat salivation assay
Protocol: Female Sprague-Dawley rats weighing 200 to 300 g were anesthetized with urethane (1.5 g/kg, s.c., Sigma, St. Louis, Mo.), with a supplement of 0.25 g/kg, s.c. urethane as needed. Urethane was administered at a concentration of 0.25 g/mL.
Rats were placed on a heated blanket on their dorsal side in an inclined position (20° angle) position (head down). A swab was placed in the rat's mouth. The test compound or vehicle was administered intravenously via the tail vein. After 5 min., oxotremorine (1.0 mg/kg) was administered subcutaneously. The swab was discarded and
Replaced by a pre-weighed swab. Saliva was then collected for 10 min. and then the swab was removed and re-weighed to determine the output of saliva. Dose-response curves were fitted with a four parameter logistic equation to obtain estimates of ID50 (dose required to produce 50% of the maximal response).
By comparing the ID50 values determined in the rat bladder assay and rat salivation assay, the in vivo bladder/salivation selectivity ratio was calculated for the compounds tested.

Structure (SMILES) | ID50 bladder/salivation selectivity ratio
CCN(CC)CC#CCOC(=O)C(O)(c1ccccc1)C1CCCCC1 (centres unmarked) [oxybutynin, reference compound] | about 1.4
Cc1ccc(O)c([C@H](CCN(C(C)C)C(C)C)c2ccccc2)c1 [tolterodine, reference compound] | ~4.8
